Reference: patent US6737383B1, “Herbicidal oxadiazolidines” (priority 1999, dated 2004)

Tests used:
[1] = system: bedstraw; experiment: Test B pre/postemergence bedstraw; type: in vivo, Galium aparine; conditions: Preemergence
In short: (§1)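 Response is a visual 0-to-10 score relative to untreated plants, where 0 means no effect and 10 means complete control, taken twelve to sixteen days after application. Treatments went onto soil at planting and onto foliage of 1- to 4-leaf plants, using a surfactant-containing non-phytotoxic solvent.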

[2] = system: blackgrass; experiment: Test B pre/postemergence blackgrass; type: in vivo, Alopecurus myosuroides; conditions: Preemergence
In short: as §1

[3] = system: surinam grass; experiment: Test B pre/postemergence surinam grass; type: in vivo, Brachiaria decumbens; conditions: Preemergence
In short: as §1

[4] = system: cocklebur; experiment: Test B pre/postemergence cocklebur; type: in vivo, Xanthium strumarium; conditions: Preemergence
In short: as §1

[5] = system: corn; experiment: Test B pre/postemergence corn; type: in vivo, Zea mays; conditions: Preemergence
In short: as §1

[6] = system: crabgrass; experiment: Test B pre/postemergence crabgrass; type: in vivo, Digitaria sanguinalis; conditions: Preemergence
In short: as §1

[7] = system: giant foxtail; experiment: Test B pre/postemergence giant foxtail; type: in vivo, Setaria faberii; conditions: Preemergence
In short: as §1

[8] = system: morningglory; experiment: Test B pre/postemergence morningglory; type: in vivo, Ipomoea hederacea; conditions: Preemergence
In short: as §1

[9] = system: pigweed; experiment: Test B pre/postemergence pigweed; type: in vivo, Amaranthus retroflexus; conditions: Preemergence
In short: as §1

[10] = system: rape; experiment: Test B pre/postemergence rape; type: in vivo, Brassica napus; conditions: Preemergence
In short: as §1

[11] = system: soybean; experiment: Test B pre/postemergence soybean; type: in vivo, Glycine max; conditions: Preemergence
In short: as §1

[12] = system: sugar beet; experiment: Test B pre/postemergence sugar beet; type: in vivo, Beta vulgaris; conditions: Preemergence
In short: as §1

[13] = system: velvetleaf; experiment: Test B pre/postemergence velvetleaf; type: in vivo, Abutilon theophrasti; conditions: Preemergence
In short: as §1

[14] = system: wheat; experiment: Test B pre/postemergence wheat; type: in vivo, Triticum aestivum; conditions: Preemergence
In short: as §1

[15] = system: wild oat; experiment: Test B pre/postemergence wild oat; type: in vivo, Avena fatua; conditions: Preemergence
In short: as §1

[16] = system: purple nutsedge; experiment: Test B pre/postemergence purple nutsedge; type: in vivo, Cyperus rotundus; conditions: Preemergence
In short: as §1

[17] = system: rice; experiment: Test B flood test rice; type: in vivo, Oryza sativa
In short: (§2)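 Plants were grown to the 2-leaf stage before treatment with test chemical, then held in a greenhouse for twelve to sixteen days. Injury was visually rated against untreated controls on a 0–10 scale, where 0 is no effect and 10 is complete control.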

[18] = system: smallflower flatsedge; experiment: Test B flood test smallflower flatsedge; type: in vivo, Cyperus difformis
In short: as §2

[19] = system: duck salad; experiment: Test B flood test duck salad; type: in vivo, Heteranthera limosa
In short: as §2

[20] = system: bamyardgrass; experiment: Test B flood test barnyardgrass; type: in vivo, Echinochloa crus-galli
In short: as §2

[21] = Rate 62 g/ha, scale of 0 to 10 where 0 is no effect and 10 is complete control
[22] = Rate 125 g/ha, scale of 0 to 10 where 0 is no effect and 10 is complete control
[23] = Rate 250 g/ha, scale 0 (no effect) to 10 (complete control)
[24] = Rate 500 g/ha, scale 0 to 10 (0 no effect, 10 complete control)
[25] = Pre-emergence, Rate 62 g/ha, scale 0 to 10, 0 is no effect, 10 is complete control
[26] = Rate 125 g/ha, Pre-emergence section (flood test species), scale 0 to 10, 0 no effect, 10 complete control
[27] = Rate 250 g/ha, Pre-emergence (flood test species), scale 0 to 10, 0 is no effect, 10 is complete control
[28] = Rate 500 g/ha, Pre-emergence section of Table B, 0 to 10 scale (0 no effect, 10 complete control)

`CC(C)N(C(=O)n1oc(=O)n(C(C)C2=NOCC2)c1=O)c1ccc(F)cc1` (racemic) [Compound 721] was tested. Which “Bedstraw plant response rating” value [1, 21] did it give?
The value was 3.

What about the “Plant response rating, Bedstraw” value [1, 22] of the same molecule?
Its value is 10.

What about the “Bedstraw plant response rating” value [1, 23] of the same molecule?
The value was 10.

What about the “Bedstraw plant response rating” value [1, 24] of the same molecule?
The value was 10.

What about the “Blackgrass plant response rating” value [2, 21] of the same molecule?
Its value is 9.

And the “Plant response rating, Blackgrass” value [2, 22]?
Its value is 10.

And the “Blackgrass plant response rating” value [2, 23]?
Its value is 10.

And the “Blackgrass plant response rating” value [2, 24]?
Its value is 10.

And the “B. signalgrass plant response rating” value [3, 21]?
The value was 7.

What about the “Plant response rating, B. signalgrass” value [3, 22] of the same molecule?
Its value is 8.

And the “B. signalgrass plant response rating” value [3, 23]?
Its value is 8.

And the “B. signalgrass plant response rating” value [3, 24]?
The value was 10.

What about the “Cocklebur plant response rating” value [4, 21] of the same molecule?
The value was 0.

What about the “Plant response rating, Cocklebur” value [4, 22] of the same molecule?
The value was 0.

And the “Cocklebur plant response rating” value [4, 23]?
The value was 2.

And the “Cocklebur plant response rating” value [4, 24]?
The value was 2.

What about the “Corn plant response rating” value [5, 21] of the same molecule?
Its value is 0.

And the “Plant response rating, Corn” value [5, 22]?
The value was 3.

And the “Corn plant response rating” value [5, 23]?
Its value is 5.

What about the “Corn plant response rating” value [5, 24] of the same molecule?
Its value is 8.

What about the “Crabgrass plant response rating” value [6, 21] of the same molecule?
Its value is 9.

And the “Plant response rating, Crabgrass” value [6, 22]?
The value was 9.

And the “Crabgrass plant response rating” value [6, 23]?
The value was 9.

And the “Crabgrass plant response rating” value [6, 24]?
The value was 9.

And the “Giant foxtail plant response rating” value [7, 21]?
Its value is 9.

And the “Plant response rating, Giant foxtail” value [7, 22]?
Its value is 10.

And the “Giant foxtail plant response rating” value [7, 23]?
Its value is 10.

And the “Giant foxtail plant response rating” value [7, 24]?
Its value is 10.

And the “Morningglory plant response rating” value [8, 21]?
Its value is 1.

What about the “Plant response rating, Morningglory” value [8, 22] of the same molecule?
The value was 2.

What about the “Morningglory plant response rating” value [8, 23] of the same molecule?
The value was 2.

And the “Morningglory plant response rating” value [8, 24]?
Its value is 5.

What about the “Redroot pigweed plant response rating” value [9, 21] of the same molecule?
The value was 9.

What about the “Plant response rating, Redroot pigweed” value [9, 22] of the same molecule?
Its value is 10.

And the “Redroot pigweed plant response rating” value [9, 23]?
Its value is 10.

And the “Redroot pigweed plant response rating” value [9, 24]?
Its value is 10.

What about the “Rape plant response rating” value [10, 21] of the same molecule?
Its value is 1.

What about the “Plant response rating, Rape” value [10, 22] of the same molecule?
Its value is 9.

What about the “Rape plant response rating” value [10, 23] of the same molecule?
The value was 9.

And the “Rape plant response rating” value [10, 24]?
Its value is 10.

What about the “Soybean plant response rating” value [11, 21] of the same molecule?
Its value is 0.

What about the “Plant response rating, Soybean” value [11, 22] of the same molecule?
Its value is 0.

What about the “Soybean plant response rating” value [11, 23] of the same molecule?
Its value is 0.

What about the “Soybean plant response rating” value [11, 24] of the same molecule?
Its value is 7.

And the “Sugarbeets plant response rating” value [12, 21]?
Its value is 3.

What about the “Plant response rating, Sugarbeets” value [12, 22] of the same molecule?
The value was 7.

What about the “Sugarbeets plant response rating” value [12, 23] of the same molecule?
The value was 7.

And the “Sugarbeets plant response rating” value [12, 24]?
The value was 8.

And the “Velvetleaf plant response rating” value [13, 21]?
Its value is 0.

And the “Plant response rating, Velvetleaf” value [13, 22]?
The value was 5.

What about the “Velvetleaf plant response rating” value [13, 23] of the same molecule?
Its value is 8.

And the “Velvetleaf plant response rating” value [13, 24]?
The value was 10.

What about the “Wheat plant response rating” value [14, 21] of the same molecule?
Its value is 0.

What about the “Plant response rating, Wheat” value [14, 22] of the same molecule?
The value was 3.

What about the “Wheat plant response rating” value [14, 23] of the same molecule?
Its value is 3.

What about the “Wheat plant response rating” value [14, 24] of the same molecule?
Its value is 8.

And the “Wild oats plant response rating” value [15, 21]?
The value was 6.

What about the “Plant response rating, Wild oats” value [15, 22] of the same molecule?
The value was 8.

What about the “Wild oats plant response rating” value [15, 23] of the same molecule?
Its value is 8.

And the “Wild oats plant response rating” value [15, 24]?
The value was 10.

And the “Nutsedge plant response rating” value [16, 21]?
The value was 0.

What about the “Plant response rating, Nutsedge” value [16, 22] of the same molecule?
Its value is 0.

And the “Nutsedge plant response rating” value [16, 23]?
Its value is 0.

And the “Nutsedge plant response rating” value [16, 24]?
Its value is 3.

What about the “Rice plant response rating” value [17, 25] of the same molecule?
The value was 0.

What about the “Rice plant response rating” value [17, 26] of the same molecule?
The value was 0.

And the “Rice plant response rating” value [17, 27]?
Its value is 0.

What about the “Rice plant response rating” value [17, 28] of the same molecule?
The value was 0.

What about the “S. Flatsedge plant response rating” value [18, 25] of the same molecule?
Its value is 0.

What about the “S. Flatsedge plant response rating” value [18, 26] of the same molecule?
The value was 0.

And the “S. Flatsedge plant response rating” value [18, 27]?
The value was 0.

And the “S. Flatsedge plant response rating” value [18, 28]?
Its value is 0.

And the “Ducksalad plant response rating” value [19, 25]?
Its value is 0.

And the “Ducksalad plant response rating” value [19, 26]?
The value was 0.

And the “Ducksalad plant response rating” value [19, 27]?
The value was 0.

What about the “Ducksalad plant response rating” value [19, 28] of the same molecule?
The value was 0.

What about the “Barnyardgrass plant response rating” value [20, 25] of the same molecule?
Its value is 0.

And the “Barnyardgrass plant response rating” value [20, 26]?
The value was 0.

And the “Barnyardgrass plant response rating” value [20, 27]?
The value was 0.

What about the “Barnyardgrass plant response rating” value [20, 28] of the same molecule?
Its value is 0.
